In US20250154109A1, “SODIUM CHANNEL BLOCKING COMPOUNDS, DERIVATIVES THEREOF, AND METHODS OF THEIR USE” (LATIGO BIOTHERAPEUTICS, INC, priority 2022, published 2025):
Counter-ions that a name gives are not always drawn. Like-named read-outs stand apart in the source and are kept apart here.

Biological target: human Nav1.8 (Homo sapiens, UniProt Q9Y5Y9)
Assay: SyncroPatch384PE assay (automated patch clamp)
Type: cell-based
Conditions: human Nav1.8/b3 CHO cells
[1] = inactivated state block (P2 measurement), read-out: P2 IC50
[2] = resting state block (P1 measurement), read-out: P1 IC50

Chain of human Nav1.8 (Q9Y5Y9 whole entry): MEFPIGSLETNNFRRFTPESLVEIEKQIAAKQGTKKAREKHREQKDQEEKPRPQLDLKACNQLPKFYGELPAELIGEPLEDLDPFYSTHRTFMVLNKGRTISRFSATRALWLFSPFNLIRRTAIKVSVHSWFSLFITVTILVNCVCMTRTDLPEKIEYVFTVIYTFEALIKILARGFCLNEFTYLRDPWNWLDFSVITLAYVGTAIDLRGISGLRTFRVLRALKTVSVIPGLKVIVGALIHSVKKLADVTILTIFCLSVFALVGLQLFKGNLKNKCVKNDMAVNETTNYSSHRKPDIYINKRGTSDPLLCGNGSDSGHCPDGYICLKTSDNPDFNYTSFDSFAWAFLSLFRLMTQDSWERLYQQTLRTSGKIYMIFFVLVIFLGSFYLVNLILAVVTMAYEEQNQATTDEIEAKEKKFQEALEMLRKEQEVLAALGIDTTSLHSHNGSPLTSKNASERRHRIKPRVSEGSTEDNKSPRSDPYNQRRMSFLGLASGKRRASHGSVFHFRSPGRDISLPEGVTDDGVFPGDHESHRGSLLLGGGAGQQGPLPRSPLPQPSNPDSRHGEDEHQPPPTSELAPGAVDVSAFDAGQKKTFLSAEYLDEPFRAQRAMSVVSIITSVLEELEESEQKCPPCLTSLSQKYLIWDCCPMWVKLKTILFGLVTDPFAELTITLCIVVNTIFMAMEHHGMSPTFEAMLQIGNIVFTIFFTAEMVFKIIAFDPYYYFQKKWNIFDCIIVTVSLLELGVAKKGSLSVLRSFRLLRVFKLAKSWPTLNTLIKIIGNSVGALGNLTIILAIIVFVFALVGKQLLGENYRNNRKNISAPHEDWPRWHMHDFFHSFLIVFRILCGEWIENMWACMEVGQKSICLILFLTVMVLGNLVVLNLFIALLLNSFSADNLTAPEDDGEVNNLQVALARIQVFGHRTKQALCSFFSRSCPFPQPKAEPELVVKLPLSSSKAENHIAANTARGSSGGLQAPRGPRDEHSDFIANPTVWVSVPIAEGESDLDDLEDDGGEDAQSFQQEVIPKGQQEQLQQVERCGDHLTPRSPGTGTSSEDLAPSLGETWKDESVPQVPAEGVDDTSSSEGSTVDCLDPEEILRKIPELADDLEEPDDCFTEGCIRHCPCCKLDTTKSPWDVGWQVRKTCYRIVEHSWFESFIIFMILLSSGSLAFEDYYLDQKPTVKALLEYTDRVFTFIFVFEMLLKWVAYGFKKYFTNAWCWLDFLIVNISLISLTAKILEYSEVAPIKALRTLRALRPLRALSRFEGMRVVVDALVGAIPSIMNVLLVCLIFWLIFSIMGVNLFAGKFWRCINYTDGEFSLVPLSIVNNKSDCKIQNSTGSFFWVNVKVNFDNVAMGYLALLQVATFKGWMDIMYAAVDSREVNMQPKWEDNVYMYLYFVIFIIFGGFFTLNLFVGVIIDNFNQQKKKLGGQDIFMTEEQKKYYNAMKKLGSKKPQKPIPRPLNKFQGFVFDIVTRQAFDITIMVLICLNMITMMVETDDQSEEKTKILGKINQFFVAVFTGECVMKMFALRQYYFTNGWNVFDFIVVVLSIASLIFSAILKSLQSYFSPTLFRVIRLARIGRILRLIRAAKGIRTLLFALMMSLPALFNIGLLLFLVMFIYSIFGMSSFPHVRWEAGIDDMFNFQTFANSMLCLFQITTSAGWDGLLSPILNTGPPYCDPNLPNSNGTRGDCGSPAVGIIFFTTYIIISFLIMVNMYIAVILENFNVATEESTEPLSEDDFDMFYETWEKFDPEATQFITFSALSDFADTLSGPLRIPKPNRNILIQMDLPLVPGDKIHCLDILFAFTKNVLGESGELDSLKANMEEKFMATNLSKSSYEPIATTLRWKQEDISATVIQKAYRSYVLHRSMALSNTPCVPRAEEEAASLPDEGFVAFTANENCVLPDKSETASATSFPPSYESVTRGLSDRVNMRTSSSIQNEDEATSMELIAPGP

**Q.** For `C[S@@](=N)(=O)c1cccc(NC(=O)c2cc(C(F)(F)F)nnc2N2CCCC(F)(F)CC2)c1` [Example 18, (R)-3-(4,4-difluoroazepan-1-yl)-N-(3-(S-methylsulfonimidoyl)phenyl)-6-(trifluoromethyl)pyridazine-4-carboxamide], which IC50 [1] is on record?
**A.** 100 to 200 nM

**Q.** And the IC50 [2]?
**A.** > 200 nM

**Q.** For `Cc1c(C(F)(F)F)cnc(N2CCCC(F)(F)CC2)c1C(=O)Nc1cccc([S@@](C)(=O)=NC(=O)C2(N)CCC2)c1` [Example 180, (R)-N-(3-(N-(1-aminocyclobutane-1-carbonyl)-S-methylsulfonimidoyl)phenyl)-2-(4,4-difluoroazepan-1-yl)-4-methyl-5-(trifluoromethyl)nicotinamide], which IC50 [1] is on record?
**A.** ≤ 5 nM

**Q.** And the IC50 [2]?
**A.** ≤ 5 nM

**Q.** Which results are given for `Cc1c(C#N)c(C(F)(F)F)nc(N2CCCC(F)(F)CC2)c1C(=O)Nc1cccc([S@@](C)(=O)=NC(=O)CCN)c1` [Example 58, (R)-N-(3-(N-(3-aminopropanoyl)-S-methylsulfonimidoyl)phenyl)-5-cyano-2-(4,4-difluoroazepan-1-yl)-4-methyl-6-(trifluoromethyl)nicotinamide formate]?
**A.** IC50 [1]: ≤ 5 nM; IC50 [2]: ≤ 5 nM

**Q.** With `Cc1c(C(F)(F)F)cnc(N2CCCC(F)(F)CC2)c1C(=O)Nc1cccc([S@@](C)(=N)=O)c1` [Example 163, (S)-2-(4,4-difluoroazepan-1-yl)-4-methyl-N-(3-(S-methylsulfonimidoyl)phenyl)-5-(trifluoromethyl)nicotinamide] as the compound, how does the IC50 [1] read?
**A.** ≤ 5 nM

**Q.** And the IC50 [2]?
**A.** ≤ 5 nM

**Q.** Which IC50 [1] does the source give for `Cc1c(-c2ccc(Cl)c(F)c2)cnc(N2CCCC(F)(F)CC2)c1C(=O)Nc1cccc([S@](C)(=N)=O)c1` [Example 166, (R)-5-(4-chloro-3-fluorophenyl)-2-(4,4-difluoroazepan-1-yl)-4-methyl-N-(3-(S-methylsulfonimidoyl)phenyl)nicotinamide] here?
**A.** ≤ 5 nM

**Q.** What about the IC50 [2] of the same compound?
**A.** ≤ 5 nM

**Q.** Which IC50 [1] does the source give for `Cc1c(C(=O)Nc2cccc([S@@](C)(=O)=NC(=O)CN)c2)c(N2CCCC(F)(F)CC2)nc(C(F)(F)F)c1-c1cnn(C)c1` [Example 184, (R)-2-(4,4-difluoroazepan-1-yl)-N-(3-(N-glycyl-S-methylsulfonimidoyl)phenyl)-4-methyl-5-(1-methyl-1H-pyrazol-4-yl)-6-(trifluoromethyl)nicotinamide] here?
**A.** ≤ 5 nM

**Q.** What about the IC50 [2] of the same compound?
**A.** ≤ 5 nM

**Q.** How did the IC50 [1] turn out when `Cc1c(-c2cnn(C)c2)cnc(N2CCCC(F)(F)CC2)c1C(=O)Nc1cccc([S@@](C)(=O)=NC(=O)[C@@H](C)N)c1` [Example 75, N-(3-((R)-N-(D-alanyl)-S-methylsulfonimidoyl)phenyl)-2-(4,4-difluoroazepan-1-yl)-4-methyl-5-(1-methyl-1H-pyrazol-4-yl)nicotinamide] was run?
**A.** 5 to 50 nM

**Q.** What about the IC50 [2] of the same compound?
**A.** 5 to 50 nM

**Q.** What does the source list for `Cc1cc(C#N)nc(N2CCCC(F)(F)CC2)c1C(=O)Nc1cccc([S@](C)(=N)=O)c1` [Example 148, (R)-6-cyano-2-(4,4-difluoroazepan-1-yl)-4-methyl-N-(3-(S-methylsulfonimidoyl)phenyl)nicotinamide]?
**A.** IC50 [1]: 5 to 50 nM; IC50 [2]: 5 to 50 nM

**Q.** How did the IC50 [1] turn out when `Cc1nc(N2CCC3(CC2)CC3)c(C(=O)Nc2cccc(S(C)(=N)=O)c2)cc1Cl` (stereo not shown) [Example 12, 5-chloro-6-methyl-N-(3-(S-methylsulfonimidoyl)phenyl)-2-(6-azaspiro[2.5]octan-6-yl)nicotinamide] was run?
**A.** ≤ 5 nM

**Q.** What about the IC50 [2] of the same compound?
**A.** ≤ 5 nM

**Q.** For `Cc1c(C(F)(F)F)nnc(N2CCCCCC2)c1C(=O)Nc1cccc([S@](C)(=N)=O)c1` [Example 10, (R)-3-(azepan-1-yl)-5-methyl-N-(3-(S-methylsulfonimidoyl)phenyl)-6-(trifluoromethyl)pyridazine-4-carboxamide], which IC50 [1] is on record?
**A.** 50 to 100 nM

**Q.** What about the IC50 [2] of the same compound?
**A.** 50 to 100 nM

**Q.** What does the source list for `Cc1c(-c2ccc(F)c(F)c2)cnc(N2CCCC(F)(F)CC2)c1C(=O)Nc1cccc([S@](C)(=N)=O)c1` [Example 59, (R)-2-(4,4-difluoroazepan-1-yl)-5-(3,4-difluorophenyl)-4-methyl-N-(3-(S-methylsulfonimidoyl)phenyl)nicotinamide]?
**A.** IC50 [1]: ≤ 5 nM; IC50 [2]: ≤ 5 nM

**Q.** How did the IC50 [1] turn out when `Cc1c(C(F)(F)F)cnc(N2CCCC(F)(F)CC2)c1C(=O)Nc1cccc([S@@](C)(=O)=NC(=O)C(C)(C)N)c1` [Example 187, (R)-N-(3-(N-(2-amino-2-methylpropanoyl)-S-methylsulfonimidoyl)phenyl)-2-(4,4-difluoroazepan-1-yl)-4-methyl-5-(trifluoromethyl)nicotinamide] was run?
**A.** ≤ 5 nM

**Q.** What about the IC50 [2] of the same compound?
**A.** ≤ 5 nM

**Q.** Which IC50 [1] does the source give for `CS(=N)(=O)c1cccc(NC(=O)c2nnc(C(F)(F)F)cc2N2CCCCCC2)c1` (stereo not shown) [Example 9, 4-(azepan-1-yl)-N-(3-(S-methylsulfonimidoyl)phenyl)-6-(trifluoromethyl)pyridazine-3-carboxamide] here?
**A.** > 200 nM

**Q.** What about the IC50 [2] of the same compound?
**A.** > 200 nM

**Q.** Which results are given for `Cc1c(N2CC(F)(F)C2)cnc(N2CCCC(F)(F)CC2)c1C(=O)Nc1cccc([S@](C)(=N)=O)c1` [Example 149, (R)-2-(4,4-difluoroazepan-1-yl)-5-(3,3-difluoroazetidin-1-yl)-4-methyl-N-(3-(S-methylsulfonimidoyl)phenyl)nicotinamide]?
**A.** IC50 [1]: 5 to 50 nM; IC50 [2]: 5 to 50 nM

**Q.** Which IC50 [1] does the source give for `Cc1c(-c2cnn(C3CC3)c2)cnc(N2CCCC(F)(F)CC2)c1C(=O)Nc1cccc([S@](C)(=N)=O)c1` [Example 69, (R)-5-(1-cyclopropyl-1H-pyrazol-4-yl)-2-(4,4-difluoroazepan-1-yl)-4-methyl-N-(3-(S-methylsulfonimidoyl)phenyl)nicotinamide] here?
**A.** 5 to 50 nM

**Q.** And the IC50 [2]?
**A.** 5 to 50 nM

**Q.** Which results are given for `Cc1c(C(F)(F)F)nnc(N2CCCC(F)(F)CC2)c1C(=O)Nc1cccc(S(=N)(N)=O)c1` (stereo not shown) [Example 115, 3-(4,4-difluoroazepan-1-yl)-5-methyl-N-(3-sulfamidimidoylphenyl)-6-(trifluoromethyl)pyridazine-4-carboxamide]?
**A.** IC50 [1]: ≤ 5 nM; IC50 [2]: ≤ 5 nM

**Q.** `Cc1c(-c2cccnc2)cnc(N2CCCC(F)(F)CC2)c1C(=O)Nc1cccc(S(C)(=N)=O)c1` (stereo not shown) [Example 84, 6-(4,4-difluoroazepan-1-yl)-4-methyl-N-(3-(S-methylsulfonimidoyl)phenyl)-[3,3bipyridine]-5-carboxamide] was tested. Which IC50 [1] did it give?
**A.** 5 to 50 nM

**Q.** And the IC50 [2]?
**A.** 50 to 100 nM

**Q.** How did the IC50 [1] turn out when `Cc1c(-c2cc(F)cc(F)c2)cnc(N2CCCC(F)(F)CC2)c1C(=O)Nc1cccc([S@](C)(=N)=O)c1` [Example 61, (R)-2-(4,4-difluoroazepan-1-yl)-5-(3,5-difluorophenyl)-4-methyl-N-(3-(S-methylsulfonimidoyl)phenyl)nicotinamide] was run?
**A.** ≤ 5 nM

**Q.** And the IC50 [2]?
**A.** ≤ 5 nM

**Q.** `CS(=N)(=O)c1cccc(NC(=O)c2cc(C(F)(F)F)nnc2N2CCCCCC2)c1` (stereo not shown) [Example 1, 3-(Azepan-1-yl)-N-(3-(S-methylsulfonimidoyl)phenyl)-6-(trifluoromethyl)pyridazine-4-carboxamide] was tested. Which IC50 [1] did it give?
**A.** > 200 nM

**Q.** What about the IC50 [2] of the same compound?
**A.** > 200 nM

**Q.** `CS(=N)(=O)c1cc(NC(=O)c2cc(C(F)(F)F)nnc2N2CCCCCC2)ccn1` (stereo not shown) [Example 2, 3-(azepan-1-yl)-N-{2-[imino(methyl)oxo-λ^6-sulfanyl]pyridin-4-yl}-6-(trifluoromethyl)pyridazine-4-carboxamide] was tested. Which IC50 [1] did it give?
**A.** > 200 nM

**Q.** And the IC50 [2]?
**A.** > 200 nM

**Q.** What does the source list for `CNCC(=O)N=[S@](C)(=O)c1cccc(NC(=O)c2c(N3CCCC(F)(F)CC3)nnc(-c3cnn(C)c3)c2C)c1` [Example 72, (R)-3-(4,4-difluoroazepan-1-yl)-5-methyl-6-(1-methyl-1H-pyrazol-4-yl)-N-(3-(S-methyl-N-(methylglycyl)sulfonimidoyl)phenyl)pyridazine-4-carboxamide]?
**A.** IC50 [1]: 50 to 100 nM; IC50 [2]: 50 to 100 nM

**Q.** `Cc1c(C(F)(F)F)nnc(N2CCCCCC2)c1C(=O)Nc1cccc([S@@](C)(=N)=O)c1` [Example 11, (S)-3-(azepan-1-yl)-5-methyl-N-(3-(S-methylsulfonimidoyl)phenyl)-6-(trifluoromethyl)pyridazine-4-carboxamide] was tested. Which IC50 [1] did it give?
**A.** 100 to 200 nM

**Q.** And the IC50 [2]?
**A.** 100 to 200 nM

**Q.** `Cc1c(C#N)c(C(F)(F)F)nc(N2CCCC(F)(F)CC2)c1C(=O)Nc1cccc([S@@](C)(=O)=NC(=O)C(C)(C)N)c1` [Example 227, (R)-N-(3-(N-(2-amino-2-methylpropanoyl)-S-methylsulfonimidoyl)phenyl)-5-cyano-2-(4,4-difluoroazepan-1-yl)-4-methyl-6-(trifluoromethyl)nicotinamide formate] was tested. Which IC50 [1] did it give?
**A.** ≤ 5 nM

**Q.** And the IC50 [2]?
**A.** ≤ 5 nM

**Q.** What does the source list for `Cc1c(C#N)cnc(N2CCCC(F)(F)CC2)c1C(=O)Nc1cccc(S(C)(=N)=O)c1` (stereo not shown) [Example 97, 5-cyano-2-(4,4-difluoroazepan-1-yl)-4-methyl-N-(3-(S-methylsulfonimidoyl)phenyl)nicotinamide]?
**A.** IC50 [1]: 5 to 50 nM; IC50 [2]: 5 to 50 nM

**Q.** `Cc1c(-c2cnn(C)c2)cnc(N2CCCC(F)(F)CC2)c1C(=O)Nc1cccc([S@@](C)(=O)=NC(=O)[C@@H](C)O)c1` [Example 230, 2-(4,4-difluoroazepan-1-yl)-N-(3-((R)-N-((R)-2-hydroxypropanoyl)-S-methylsulfonimidoyl)phenyl)-4-methyl-5-(1-methyl-1H-pyrazol-4-yl)nicotinamide] was tested. Which IC50 [1] did it give?
**A.** 5 to 50 nM

**Q.** And the IC50 [2]?
**A.** 5 to 50 nM

**Q.** For `Cc1c(C(F)(F)F)cnc(N2CCCC(F)(F)CC2)c1C(=O)Nc1ccnc([S@@](C)(=N)=O)c1` (single isomer, unassigned) [Example 188], which IC50 [1] is on record?
**A.** ≤ 5 nM

**Q.** And the IC50 [2]?
**A.** ≤ 5 nM

**Q.** What does the source list for `Cc1c(C#N)c(C(F)(F)F)nc(N2CCCC(F)(F)CC2)c1C(=O)Nc1cccc([S@@](C)(=O)=NCCN)c1` [Example 196, (R)-N-(3-(N-(2-aminoethyl)-S-methylsulfonimidoyl)phenyl)-5-cyano-2-(4,4-difluoroazepan-1-yl)-4-methyl-6-(trifluoromethyl)nicotinamide]?
**A.** IC50 [1]: ≤ 5 nM; IC50 [2]: ≤ 5 nM

**Q.** What does the source list for `Cc1cc(C(F)(F)F)nc(N2CCCC(F)(F)CC2)c1C(=O)Nc1cccc([S@](C)(=N)=O)c1` [Example 33, (R)-2-(4,4-Difluoroazepan-1-yl)-4-methyl-N-(3-(S-methylsulfonimidoyl)phenyl)-6-(trifluoromethyl)nicotinamide]?
**A.** IC50 [1]: ≤ 5 nM; IC50 [2]: ≤ 5 nM

**Q.** How did the IC50 [1] turn out when `Cc1c(C(F)(F)F)nnc(N2CCCC(F)(F)CC2)c1C(=O)Nc1cccc([S@](C)(=N)=O)c1` [Example 28, (R)-3-(4,4-Difluoroazepan-1-yl)-5-methyl-N-(3-(S-methylsulfonimidoyl)phenyl)-6-(trifluoromethyl)pyridazine-4-carboxamide] was run?
**A.** 5 to 50 nM

**Q.** What about the IC50 [2] of the same compound?
**A.** 5 to 50 nM
